{"source": "paper PMC5552358", "about": "“Imidazoquinoxaline anticancer derivatives and imiquimod interact with tubulin: Characterization of molecular microtubule inhibiting mechanisms in correlation with cytotoxicity” (PLoS ONE, 2017)", "key": {"TLR7 [1]": {"molecular_target": "T1, TLR7 (Homo sapiens, UniProt Q9NYK1)", "T1 construct": "HEK-Blue-hTLR7 reporter cells", "T1 sequence (Q9NYK1 27-1049)": "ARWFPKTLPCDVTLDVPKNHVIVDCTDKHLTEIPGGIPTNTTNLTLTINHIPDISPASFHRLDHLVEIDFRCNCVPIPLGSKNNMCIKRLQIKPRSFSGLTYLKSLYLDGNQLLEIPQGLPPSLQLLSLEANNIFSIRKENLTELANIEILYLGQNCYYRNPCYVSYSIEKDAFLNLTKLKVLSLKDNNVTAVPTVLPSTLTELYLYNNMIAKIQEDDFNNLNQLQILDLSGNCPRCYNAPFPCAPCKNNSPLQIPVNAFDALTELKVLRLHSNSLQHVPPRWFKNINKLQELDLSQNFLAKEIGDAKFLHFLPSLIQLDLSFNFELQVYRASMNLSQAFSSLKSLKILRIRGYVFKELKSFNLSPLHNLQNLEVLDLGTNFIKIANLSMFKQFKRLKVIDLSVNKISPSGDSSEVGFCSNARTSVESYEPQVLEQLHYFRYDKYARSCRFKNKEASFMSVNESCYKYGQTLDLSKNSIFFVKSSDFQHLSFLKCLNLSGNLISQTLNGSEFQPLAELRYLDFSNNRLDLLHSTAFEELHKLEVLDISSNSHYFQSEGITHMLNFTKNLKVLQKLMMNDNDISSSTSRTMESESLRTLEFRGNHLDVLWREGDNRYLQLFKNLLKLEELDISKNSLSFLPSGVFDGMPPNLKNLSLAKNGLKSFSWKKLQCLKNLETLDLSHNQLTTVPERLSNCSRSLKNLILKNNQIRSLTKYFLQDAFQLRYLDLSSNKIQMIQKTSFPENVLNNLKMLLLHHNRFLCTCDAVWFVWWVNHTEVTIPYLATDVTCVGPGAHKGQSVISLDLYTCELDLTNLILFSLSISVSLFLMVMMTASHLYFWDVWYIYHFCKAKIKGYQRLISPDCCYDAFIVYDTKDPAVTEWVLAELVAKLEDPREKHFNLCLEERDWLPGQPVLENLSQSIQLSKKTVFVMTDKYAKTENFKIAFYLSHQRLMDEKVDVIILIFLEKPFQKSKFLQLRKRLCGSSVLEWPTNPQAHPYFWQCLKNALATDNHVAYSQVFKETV", "assay": "NF-kB reporter HEK293 cells expressing human TLR7 (agonism; lowest active concentration)", "type": "cell-based"}, "TLR7 [2]": {"molecular_target": "T2, TLR7 (Mus musculus, UniProt P58681)", "T2 construct": "HEK-Blue-mTLR7 reporter cells", "T2 sequence (P58681 27-1050)": "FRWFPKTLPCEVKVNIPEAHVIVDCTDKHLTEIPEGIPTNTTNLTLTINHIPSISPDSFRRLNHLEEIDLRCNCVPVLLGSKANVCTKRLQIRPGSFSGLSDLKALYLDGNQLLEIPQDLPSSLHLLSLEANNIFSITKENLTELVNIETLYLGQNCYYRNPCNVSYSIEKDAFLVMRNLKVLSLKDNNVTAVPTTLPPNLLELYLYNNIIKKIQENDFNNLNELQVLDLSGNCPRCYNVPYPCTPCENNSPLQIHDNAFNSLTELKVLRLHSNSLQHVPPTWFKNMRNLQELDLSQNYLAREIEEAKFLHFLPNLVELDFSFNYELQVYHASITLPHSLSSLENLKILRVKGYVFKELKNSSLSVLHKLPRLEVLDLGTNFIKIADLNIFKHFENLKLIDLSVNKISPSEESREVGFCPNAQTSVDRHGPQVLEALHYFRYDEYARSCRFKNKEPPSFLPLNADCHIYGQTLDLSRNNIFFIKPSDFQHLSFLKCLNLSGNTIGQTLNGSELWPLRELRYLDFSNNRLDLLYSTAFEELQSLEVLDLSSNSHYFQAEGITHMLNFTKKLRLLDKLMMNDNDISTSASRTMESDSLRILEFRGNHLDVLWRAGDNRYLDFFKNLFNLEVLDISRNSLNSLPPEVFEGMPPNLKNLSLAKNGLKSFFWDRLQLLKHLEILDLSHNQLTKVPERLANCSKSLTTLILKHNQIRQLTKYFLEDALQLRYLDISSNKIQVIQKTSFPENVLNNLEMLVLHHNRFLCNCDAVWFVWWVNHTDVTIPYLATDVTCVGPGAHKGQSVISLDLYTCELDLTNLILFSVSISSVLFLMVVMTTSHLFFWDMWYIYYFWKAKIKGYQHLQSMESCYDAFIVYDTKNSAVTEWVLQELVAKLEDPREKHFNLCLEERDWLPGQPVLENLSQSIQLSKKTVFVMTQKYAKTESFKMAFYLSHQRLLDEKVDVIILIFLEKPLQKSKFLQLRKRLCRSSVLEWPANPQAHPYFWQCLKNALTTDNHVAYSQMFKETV", "assay": "NF-kB reporter HEK293 cells expressing murine TLR7 (agonism; lowest active concentration)", "type": "cell-based"}}}
{"smiles": "CC(C)Cn1cnc2c(N)nc3ccccc3c21", "note": "[imiquimod]", "values": [{"measurement": "NF-kB reporter HEK293 cells expressing human TLR7 (agonism); lowest active concen", "setting": "TLR7 [1]", "result": 4.16, "unit": "µM"}, {"measurement": "NF-kB reporter HEK293 cells expressing murine TLR7 (agonism); lowest active conce", "setting": "TLR7 [2]", "result": 4.16, "unit": "µM"}]}
